The values that follow are results of earlier work, collected in patent US11986479B2 (priority 2022, dated 2024).

Molecules are shown by their SMILES. Where two headings read alike, the source gives them in different places.

Experiment in series [1]: not given
This is another data set of the same source.

Experiment in series [2]: not given
This is another data set of the same source.

Turning to `Cn1cnc([N+](=O)[O-])c1Sc1ncnc2nc[nH]c12` [Azathoprine, 1H-Purine, 6-[(1-methyl-4-nitro-1H-imidazol-5-yl)thio]-], the “stability in the presence of sulfhydryl compounds” value (cysteine, glutathione, hydrogen sulfide) is “Conversion to mercaptopurine also occurs”. The stability in solution entry by setting is: (excess sodium hydroxide (0.1N), especially on warming) “hydrolysis to mercaptopurine occurs”; (neutral or acid pH) “stable”. Besides, the solubility in alkali result in series [1] (solutions of alkali hydroxides / one molar equivalent of alkali) is given as “may be dissolved”. In addition, in series [1] (water), the solubility in water entry was “insoluble”.

In the case of `C[C@@H]1C[C@H]2[C@@H]3CCC4=CC(=O)C=C[C@]4(C)[C@@]3(F)[C@@H](O)C[C@]2(C)[C@@]1(O)C(=O)CO` [Dexamethasone, 9-fluoro-11β,17,21-trihydroxy-16α-methylpregna-1,4-diene-3,20-dione], the stability in air result (air) is on record as “stable”. Besides, the solubility in water entry in series [1] (water) was “practically insoluble”.

As for `CCN(CC)C(=S)SSC(=S)N(CC)CC` [Disulfiram, bis(diethylthiocarbamoyl) disulfide], in series [1] (alcohol), the soluble in alcohol entry is listed as “about 3.8 g in 100 mL”. Further, the soluble in water result in series [1] (water) was “about 20 mg in 100 mL”. In series [2] (in vivo), the “diarrhea in list of adverse reactions” value is “not mentioned”.

Take `Sc1ncnc2nc[nH]c12` [Mercaptopurine, 6H-purine-6-thione, 1,7-dihydro-, monohydrate]: the solubility in ether result in series [1] (ether) was “practically insoluble”. Also, the “patients who experienced diarrhea” value in series [2] (leukemia patients) is reported as 9%.
